The text below walks through data of patent US20230167073A1 (Teijin Pharma Limited, priority 2020, published 2023).

The target of this assay is T1, Human TRPC6 (Homo sapiens, UniProt Q9Y210).
T1 construct: expressed in transfected cells
T1 sequence (Q9Y210 1-931): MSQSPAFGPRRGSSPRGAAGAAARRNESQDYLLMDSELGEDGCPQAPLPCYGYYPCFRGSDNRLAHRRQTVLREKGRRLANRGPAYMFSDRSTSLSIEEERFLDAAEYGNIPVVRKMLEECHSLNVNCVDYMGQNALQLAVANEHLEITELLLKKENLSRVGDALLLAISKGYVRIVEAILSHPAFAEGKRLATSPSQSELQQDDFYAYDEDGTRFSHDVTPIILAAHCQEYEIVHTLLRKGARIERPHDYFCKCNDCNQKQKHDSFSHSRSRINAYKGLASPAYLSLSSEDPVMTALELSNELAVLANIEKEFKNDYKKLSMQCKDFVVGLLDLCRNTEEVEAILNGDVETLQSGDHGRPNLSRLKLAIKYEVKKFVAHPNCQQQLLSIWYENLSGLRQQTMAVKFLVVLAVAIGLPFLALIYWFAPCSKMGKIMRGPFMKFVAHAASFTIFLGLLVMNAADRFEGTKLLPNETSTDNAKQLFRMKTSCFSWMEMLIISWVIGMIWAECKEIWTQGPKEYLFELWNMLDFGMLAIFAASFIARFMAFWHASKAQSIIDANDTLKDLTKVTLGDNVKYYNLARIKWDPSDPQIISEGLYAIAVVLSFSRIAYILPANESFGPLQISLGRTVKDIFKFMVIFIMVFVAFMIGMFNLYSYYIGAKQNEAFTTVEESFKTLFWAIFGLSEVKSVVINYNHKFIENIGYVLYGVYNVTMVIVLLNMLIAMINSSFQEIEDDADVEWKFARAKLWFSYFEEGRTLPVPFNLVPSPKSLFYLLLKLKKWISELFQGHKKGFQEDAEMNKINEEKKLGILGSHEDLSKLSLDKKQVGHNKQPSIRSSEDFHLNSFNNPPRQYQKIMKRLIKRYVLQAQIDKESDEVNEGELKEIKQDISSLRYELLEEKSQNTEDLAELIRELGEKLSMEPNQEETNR
Put plainly: Evaluation of TRPC6 channel inhibitory activity (1), FLIPR Calcium 5 Assay Kit, OAG stimulation (Compound Nos. 1-1293). The format is cell-based. Conditions: Human TRPC6 stably-expressing cells, OAG 30 μM, FLIPR Calcium 5 Assay Kit; read-out: Inhibitory activity (pIC50 class) (converted). Put shortly: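 TRPC6 (human) stable cells, 24 h culture; Ca5 no-wash dye + probenecid 30 min; cpd 20 min; OAG 30 μM final; ΔF (pre-cpd min to post-OAG max); 0%/100% = no cpd / no cpd + no OAG; 4PL → pIC50, binned +/++/+++.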

Consider `N#Cc1ccc(-c2ccc(CCN)nc2)c(Oc2cc(N3CCOCC3)cnn2)c1` [Compound 80, 4-[6-(2-aminoethyl)pyridin-3-yl]-3-(5-morpholin-4-ylpyridazin-3-yl)oxybenzonitrile], for which the IC50 is greater than 1 µM. Regarding `N#Cc1ccc(-c2ccc(CCN)nc2)c(Oc2cc(N3CCCCC3)cnn2)c1` [Compound 81, 4-[6-(2-aminoethyl)pyridin-3-yl]-3-(5-piperidin-1-ylpyridazin-3-yl)oxybenzonitrile], the IC50 was greater than 1 µM.

As to `N#Cc1ccc(-c2ccc(C(O)CN)cc2)c(Oc2cnnc(-c3ccccc3)c2)c1` (stereo not shown) [Compound 82, 4-[4-(2-amino-1-hydroxyethyl)phenyl]-3-(6-phenylpyridazin-4-yl)oxybenzonitrile], the IC50 was less than 0.01 µM. As to `N#Cc1ccc(-c2ccc(C3(CN)CC3)cc2)c(Oc2cnnc(-c3ccccc3)c2)c1` [Compound 83, 4-[4-[1-(aminomethyl)cyclopropyl]phenyl]-3-(6-phenylpyridazin-4-yl)oxybenzonitrile], the IC50 is greater than 1 µM. For `N#Cc1ccc(-c2ccc(CCN)cc2)c(Oc2cnnc(-c3cccc(F)c3C#N)c2)c1` [Compound 84, 2-[5-[2-[4-(2-aminoethyl)phenyl]-5-cyanophenoxy]pyridazin-3-yl]-6-fluorobenzonitrile], the IC50 was 0.01 to 1 µM. `Cc1nc(Oc2cc(C#N)ccc2-c2ccc(CCN)cn2)cc(N2CCOCC2)n1` [Compound 85, 4-[5-(2-aminoethyl)pyridin-2-yl]-3-(2-methyl-6-morpholin-4-ylpyrimidin-4-yl)oxybenzonitrile]: the IC50 was 0.01 to 1 µM. For the compound `Cc1nc(Oc2cc(C#N)ccc2-c2ccc(CCN)cn2)cc(-c2ccccc2)n1` [Compound 86, 4-[5-(2-aminoethyl)pyridin-2-yl]-3-(2-methyl-6-phenylpyrimidin-4-yl)oxybenzonitrile], the IC50 was 0.01 to 1 µM. Take `N#Cc1ccc(-c2ccc(CCN)cn2)c(Oc2cnnc(Cl)c2)c1` [Compound 87, 4-[5-(2-aminoethyl)pyridin-2-yl]-3-(6-chloropyridazin-4-yl)oxybenzonitrile]: the IC50 is greater than 1 µM. Take `N#Cc1ccc(-c2ccc(CCN)cn2)c(Oc2cc(Cl)cnn2)c1` [Compound 88, 4-[5-(2-aminoethyl)pyridin-2-yl]-3-(5-chloropyridazin-3-yl)oxybenzonitrile]: the IC50 was greater than 1 µM. As to `N#Cc1ccc(-c2ccc(CCN)cn2)c(Oc2cnnc(N3CCOCC3)c2)c1` [Compound 89, 4-[5-(2-aminoethyl)pyridin-2-yl]-3-(6-morpholin-4-ylpyridazin-4-yl)oxybenzonitrile], the IC50 is greater than 1 µM.

`N#Cc1ccc(-c2ccc(CCN)cn2)c(Oc2cnnc(N3CCCCC3)c2)c1` [Compound 90, 4-[5-(2-aminoethyl)pyridin-2-yl]-3-(6-piperidin-1-ylpyridazin-4-yl)oxybenzonitrile]: the IC50 is 0.01 to 1 µM. `N#Cc1ccc(-c2ccc(CCN)cn2)c(Oc2cc(N3CCOCC3)cnn2)c1` [Compound 91, 4-[5-(2-aminoethyl)pyridin-2-yl]-3-(5-morpholin-4-ylpyridazin-3-yl)oxybenzonitrile]: the IC50 is greater than 1 µM. Take `N#Cc1ccc(-c2ccc(CCN)cn2)c(Oc2cc(N3CCCCC3)cnn2)c1` [Compound 92, 4-[5-(2-aminoethyl)pyridin-2-yl]-3-(5-piperidin-1-ylpyridazin-3-yl)oxybenzonitrile]: the IC50 was greater than 1 µM. As for `N#Cc1ccc(-c2ccc(CCN)cc2)c(Oc2cnnc(-c3ccccc3C#N)c2)c1` [Compound 93, 4-[4-(2-aminoethyl)phenyl]-3-[6-(2-cyanophenyl)pyridazin-4-yl]oxybenzonitrile], the figure is less than 0.01 µM. Turning to `N#Cc1ccc(-c2ccc(CCN)cc2)c(Oc2cnnc(-c3ccccc3C(N)=O)c2)c1` [Compound 94, 2-[5-[2-[4-(2-aminoethyl)phenyl]-5-cyanophenoxy]pyridazin-3-yl]benzamide], the IC50 was greater than 1 µM.

On to `Cc1nc(Oc2cc(C#N)ccc2-c2ccc3c(c2)CNCC3)cc(N2CCOCC2)n1` [Compound 95, 3-(2-methyl-6-morpholin-4-ylpyrimidin-4-yl)oxy-4-(1,2,3,4-tetrahydroisoquinolin-7-yl)benzonitrile], for which the IC50 was greater than 1 µM.

Consider `Cc1nc(Oc2cc(C#N)ccc2-c2ccc(C(O)CN(C)C)cc2)cc(-c2ccccc2)n1` (stereo not shown) [Compound 96, 4-[4-[2-(dimethylamino)-1-hydroxyethyl]phenyl]-3-(2-methyl-6-phenylpyrimidin-4-yl)oxybenzonitrile], for which the IC50 was greater than 1 µM.

Consider `Cc1nc(Oc2cc(C#N)ccc2-c2ccc(C(O)CN3CCCC3)cc2)cc(-c2ccccc2)n1` (stereo not shown) [Compound 97, 4-[4-(1-hydroxy-2-pyrrolidin-1-ylethyl)phenyl]-3-(2-methyl-6-phenylpyrimidin-4-yl)oxybenzonitrile], for which the IC50 was greater than 1 µM. Take `Cc1nc(Oc2cc(C#N)ccc2-c2nc(C)c(C(O)CN(C)C)s2)cc(-c2ccccc2)n1` (stereo not shown) [Compound 98, 4-[5-[2-(dimethylamino)-1-hydroxyethyl]-4-methyl-1,3-thiazol-2-yl]-3-(2-methyl-6-phenylpyrimidin-4-yl)oxybenzonitrile]: the IC50 is greater than 1 µM.

As to `Cc1nc(Oc2cc(C#N)ccc2-c2nc(C(O)CN(C)C)c(C)n2C)cc(-c2ccccc2)n1` (stereo not shown) [Compound 99, 4-[4-[2-(dimethylamino)-1-hydroxyethyl]-1,5-dimethylimidazol-2-yl]-3-(2-methyl-6-phenylpyrimidin-4-yl)oxybenzonitrile], the IC50 is greater than 1 µM.

For `CCOC(CN)c1ccc(-c2ccc(C#N)cc2Oc2cc(N3CCOCC3)nc(C)n2)cc1` (stereo not shown) [Compound 100, 4-[4-(2-amino-1-ethoxyethyl)phenyl]-3-(2-methyl-6-morpholin-4-ylpyrimidin-4-yl)oxybenzonitrile], the IC50 was less than 0.01 µM. The value for `Cc1nc(Oc2cc(C#N)ccc2-c2ccc(C(CN)C(F)(F)F)cc2)cc(N2CCOCC2)n1` (stereo not shown) [Compound 101, 4-[4-(3-amino-1,1,1-trifluoropropan-2-yl)phenyl]-3-(2-methyl-6-morpholin-4-ylpyrimidin-4-yl)oxybenzonitrile] was less than 0.01 µM. As for `N#Cc1ccc(-c2ccc(CCN)nc2)c(Oc2cnnc(-c3ccccc3)c2)c1` [Compound 102, 4-[6-(2-aminoethyl)pyridin-3-yl]-3-(6-phenylpyridazin-4-yl)oxybenzonitrile], the figure is 0.01 to 1 µM. As for `N#Cc1ccc(-c2ccc(CCN)cn2)c(Oc2cnnc(-c3ccccc3)c2)c1` [Compound 103, 4-[5-(2-aminoethyl)pyridin-2-yl]-3-(6-phenylpyridazin-4-yl)oxybenzonitrile], the IC50 is 0.01 to 1 µM. Consider `Cc1nc(Oc2cc(C#N)ccc2-n2cc(C(O)CN(C)C)cn2)cc(-c2ccccc2)n1` (stereo not shown) [Compound 104, 4-[4-[2-(dimethylamino)-1-hydroxyethyl]pyrazol-1-yl]-3-(2-methyl-6-phenylpyrimidin-4-yl)oxybenzonitrile], for which the IC50 was greater than 1 µM. As to `Cc1nc(Oc2cc(C#N)ccc2-n2cc(C(O)CN(C)C)cn2)cc(N2CCOCC2)n1` (stereo not shown) [Compound 105, 4-[4-[2-(dimethylamino)-1-hydroxyethyl]pyrazol-1-yl]-3-(2-methyl-6-morpholin-4-ylpyrimidin-4-yl)oxybenzonitrile], the IC50 was greater than 1 µM. As for `Cc1nc(Oc2cc(C#N)ccc2-c2ccc(C(O)CN(C)C)cc2)cc(N2CCOCC2)n1` (stereo not shown) [Compound 106, 4-[4-[2-(dimethylamino)-1-hydroxyethyl]phenyl]-3-(2-methyl-6-morpholin-4-ylpyrimidin-4-yl)oxybenzonitrile], the IC50 is greater than 1 µM.

`N#Cc1ccc(-c2ccc(CCN)cc2)c(Oc2cnnc(OC3CCCC3)c2)c1` [Compound 107, 4-[4-(2-aminoethyl)phenyl]-3-(6-cyclopentyloxypyridazin-4-yl)oxybenzonitrile]: the IC50 was 0.01 to 1 µM.

Take `CC(C)(C)COc1cc(Oc2cc(C#N)ccc2-c2ccc(CCN)cc2)cnn1` [Compound 108, 4-[4-(2-aminoethyl)phenyl]-3-[6-(2,2-dimethylpropoxy)pyridazin-4-yl]oxybenzonitrile]: the IC50 was 0.01 to 1 µM. As for `N#Cc1ccc(-c2ccc(CCN)cc2)c(Oc2cnnc(OCC(F)(F)F)c2)c1` [Compound 109, 4-[4-(2-aminoethyl)phenyl]-3-[6-(2,2,2-trifluoroethoxy)pyridazin-4-yl]oxybenzonitrile], the IC50 is greater than 1 µM. Take `Cc1noc(C)c1-c1cc(Oc2cc(C#N)ccc2-c2ccc(CCN)cc2)cnn1` [Compound 110, 4-[4-(2-aminoethyl)phenyl]-3-[6-(3,5-dimethyl-1,2-oxazol-4-yl)pyridazin-4-yl]oxybenzonitrile]: the IC50 was greater than 1 µM.
